Laboratory results taken from patent US20090280549A1, “Method for Treating Body Fluid” (priority 2005, published 2009).

Assays:
platelets = assay: ATX-S10•Na(II) uptake into platelets; assay type: cell-based, human
Experimental: (§1) After labeling the compound represented by formula (II) above (hereinafter referred to as “ATX-S10•Na(II)”) with ^14C, the ATX-S10•Na(II) was dissolved in saline at a concentration of approximately 1×10^−3 mol/L, and the solution was filtered and sterilized with a 0.22 μm filter and then diluted with 1% FBS (fetal bovine serum)-containing RPMI1640 medium to prepare a 5×10^−5 mol/L ATX-S10•Na(II)-added solution.
(§2) Erythrocytes, platelets, neutrophils and lymphocytes were prepared from blood sampled from three healthy persons (designated as A, B and C).
The platelets were prepared from citric acid-treated blood. […]
(§3) After adding 400 μL of the cell suspension and 100 μL of the ATX-S10•Na(II)-added solution to each well of a 48-well microplate and mixing, the mixtures were incubated with a CO2 incubator (37° C., 5% CO2) or allowed to stand in a refrigerating chamber (approximately 4° C.). The cells were separated immediately after addition (0 hours after addition) and 1 hour, 3 hours, 20 hours and 44 hours after addition, and ATX-S10•Na(II) uptake into the cells (including cell surface binding) was measured. […]
(§4) The cell separation and uptake measurement were performed in the following manner. […] Then 4.5 mL of liquid scintillator was added and mixed therewith, and the radioactivity was measured for 5 minutes using a liquid scintillation counter. […]

[1] = tested on: EoL-1 cells (human eosinophilic leukemia cells); assay: ATX-S10•Na(II) uptake into EoL-1 cells; assay type: cell-based; details: for ATX-S10•Na(II) uptake: EoL-1
Experimental: as §1
(§5) As malignant lymphoma cells and leukemia cells, there were used THP-1 cells (human monocytic leukemia cells), EoL-1 cells (human eosinophilic leukemia cells), A3/KAW cells (human malignant lymphoma cells) and KG-1 cells (human acute myeloid leukemia cells). All of the cells were cultured using 10% FBS-containing RPMI1640 medium, with subculturing 1 to 2 times per week during the culturing. The THP-1 cells and EoL-1 cells were obtained from RIKEN BioResource Center, and the A3/KAW cells and KG-1 cells were obtained from Japan Health Sciences Foundation.
(§6) After adding 400 μL of the cell suspension and 100 μL of the ATX-S10•Na(II)-added solution to each well of a 48-well microplate and mixing, the mixtures were incubated with a CO2 incubator (37° C., 5% CO2) or allowed to stand in a refrigerating chamber (approximately 4° C.). The cells were separated immediately after addition (0 hours after addition) and 1 hour, 3 hours, 20 hours and 44 hours after addition, and ATX-S10•Na(II) uptake into the cells (including cell surface binding) was measured. The uptake with standing at 4° C. corresponds to cell surface binding, and the value of the uptake with incubation at 37° C. minus the uptake with standing at 4° C. is presumed to correspond to the substantial ATX-S 10 Na(II) uptake for each type of cell.
(§7) The cell separation and uptake measurement were performed in the following manner. Specifically, 1 mL of 1.5% BSA (bovine serum albumin)-containing PBS solution (ice-cold) was placed in a 1.5 mL tube. The suspension of cells to be separated was gently pipetted and mixed, and a 100 μL portion was taken and superposed onto the 1.5% BSA-containing PBS solution. For each well, the cell suspension (300 μL) was dispensed into three tubes (n=3). After centrifugation (3200 rpm, 10 minutes, 4° C.), the medium and 1.5% BSA-containing PBS solution were removed by suction, and then the precipitate was suspended in 100 μL of PBS(−), and 1 mL of PBS(−) was further added and mixed therewith. After additional centrifugation (3000 rpm, 10 minutes, 4° C.), the supernatant was removed by suction, and the bottom of the tube, where the precipitate is present, was cut out and transferred to a counting vial. Then 4.5 mL of liquid scintillator was added and mixed therewith, and the radioactivity was measured for 5 minutes using a liquid scintillation counter. The measured radioactivity was used to calculate the ATX-S10•Na(II) uptake (pmol/10^5 cells) into the cells.

[2] = tested on: KG-1 cells (human acute myeloid leukemia cells); assay: ATX-S10•Na(II) uptake into KG-1 cells; assay type: cell-based; details: for ATX-S10•Na(II) uptake: KG-1
Experimental: as §1, §5, §6, §7

[3] = tested on: THP-1 cells (human monocytic leukemia cells); assay: ATX-S10•Na(II) uptake into THP-1 cells; assay type: cell-based; details: for ATX-S10•Na(II) uptake: THP-1
Experimental: as §1, §5, §6, §7

lymphocytes = assay: ATX-S10•Na(II) uptake into lymphocytes; assay type: cell-based, human
Experimental: as §1, §2
(§8) The erythrocytes, neutrophils and lymphocytes were prepared from heparinized blood. […]
as §3, §4

erythrocytes = assay: ATX-S10•Na(II) uptake into erythrocytes; assay type: cell-based, human
Experimental: as §1, §2, §8, §3, §4

[4] = 0 hr, immediately after addition

## C=Cc1c(C)c2cc3nc(cc4[nH]c(cc5nc(cc1[nH]2)C(C)=C5CCC(=O)NC(CC(=O)[O-])C(=O)[O-])c(CCC(=O)NC(CC(=O)[O-])C(=O)[O-])c4C)C(C)(O)/C3=C\C=NO.[Na+].[Na+].[Na+].[Na+] (stereo not shown) [ATX-S10•Na(II)]
platelets; after incubation at 37° C. for 44 hours
  Aggregation of platelets: Aggregation of platelets was observed
platelets; platelets
  ATX-S10•Na(II) uptake: Almost no ATX-S10•Na(II) was taken up
[1]; [4]
  ATX-S10•Na(II) uptake: 0.32 pmol/10^5 cells
[1]; 1 hr, incubation at 37° C.
  ATX-S10•Na(II) uptake: 0.25 pmol/10^5 cells
[1]; 1 hr, standing at 4° C.
  ATX-S10•Na(II) uptake: 0.30 pmol/10^5 cells
[1]; 3 hr, incubation at 37° C.
  ATX-S10•Na(II) uptake: 0.48 pmol/10^5 cells
[1]; 3 hr, standing at 4° C.
  ATX-S10•Na(II) uptake: 0.32 pmol/10^5 cells
[1]; 20 hr, incubation at 37° C.
  ATX-S10•Na(II) uptake: 1.59 pmol/10^5 cells
[1]; 20 hr, standing at 4° C.
  ATX-S10•Na(II) uptake: 0.36 pmol/10^5 cells
[1]; 44 hr, incubation at 37° C.
  ATX-S10•Na(II) uptake: 3.09 pmol/10^5 cells
[1]; 44 hr, standing at 4° C.
  ATX-S10•Na(II) uptake: 0.37 pmol/10^5 cells
[1]; EoL-1 cells versus THP-1, A3/KAW and KG-1 cells
  uptake compared between cell types: fairly low value
[1]; EoL-1 cells, course over incubation time
  substantial uptake of ATX-S10•Na(II) (uptake at 37° C. minus uptake at 4° C.): increased with incubation time
[2]; [4]
  ATX-S10•Na(II) uptake: 0.40 pmol/10^5 cells
[2]; 1 hr, incubation at 37° C.
  ATX-S10•Na(II) uptake: 2.34 pmol/10^5 cells
[2]; 1 hr, standing at 4° C.
  ATX-S10•Na(II) uptake: 1.36 pmol/10^5 cells
[2]; 3 hr, incubation at 37° C.
  ATX-S10•Na(II) uptake: 2.59 pmol/10^5 cells
[2]; 3 hr, standing at 4° C.
  ATX-S10•Na(II) uptake: 1.50 pmol/10^5 cells
[2]; 20 hr, incubation at 37° C.
  ATX-S10•Na(II) uptake: 6.85 pmol/10^5 cells
[2]; 20 hr, standing at 4° C.
  ATX-S10•Na(II) uptake: 2.87 pmol/10^5 cells
[2]; 44 hr, incubation at 37° C.
  ATX-S10•Na(II) uptake: 10.97 pmol/10^5 cells
[2]; 44 hr, standing at 4° C.
  ATX-S10•Na(II) uptake: 0.96 pmol/10^5 cells
[2]; KG-1 cells, course over incubation time
  substantial uptake of ATX-S10•Na(II) (uptake at 37° C. minus uptake at 4° C.): increased with incubation time
[3]; [4]
  ATX-S10•Na(II) uptake: 0.56 pmol/10^5 cells
[3]; 1 hr, incubation at 37° C.
  ATX-S10•Na(II) uptake: 3.30 pmol/10^5 cells
[3]; 1 hr, standing at 4° C.
  ATX-S10•Na(II) uptake: 1.43 pmol/10^5 cells
[3]; 3 hr, incubation at 37° C.
  ATX-S10•Na(II) uptake: 4.73 pmol/10^5 cells
[3]; 3 hr, standing at 4° C.
  ATX-S10•Na(II) uptake: 2.88 pmol/10^5 cells
[3]; 20 hr, incubation at 37° C.
  ATX-S10•Na(II) uptake: 18.39 pmol/10^5 cells
[3]; 20 hr, standing at 4° C.
  ATX-S10•Na(II) uptake: 5.37 pmol/10^5 cells
[3]; 44 hr, incubation at 37° C.
  ATX-S10•Na(II) uptake: 33.21 pmol/10^5 cells
[3]; 44 hr, standing at 4° C.
  ATX-S10•Na(II) uptake: 1.94 pmol/10^5 cells
[3]; THP-1 cells versus A3/KAW, KG-1 and EoL-1 cells
  uptake compared between cell types: highest
[3]; THP-1 cells, course over incubation time
  substantial uptake of ATX-S10•Na(II) (uptake at 37° C. minus uptake at 4° C.): increased with incubation time
lymphocytes; lymphocytes versus EoL-1, THP-1 and A3/KAW cells
  uptake compared between cell types: higher than EoL-1 cells, although not as high as THP-1 cells or A3/KAW cells
lymphocytes; lymphocytes, course over incubation time
  substantial uptake of ATX-S10•Na(II) (uptake at 37° C. minus uptake at 4° C.): increased with incubation time
erythrocytes
  ATX-S10•Na(II) uptake: Almost no ATX-S10•Na(II) was taken up
